ChEMBL document CHEMBL1201862, “PubChem BioAssay data set” (2004)
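Growth conditions: 96-well plates. Treatment: test compound, 48 hours, 5 concentrations. Analysis: linear interpolation between bracketing concentrations; unreached endpoints set to highest concentration. At the GI50, growth is halved.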 The source made the active and inactive calls. No stated cut-off is given here; in the data, active = GI50 up to about 1.1 µM and inactive = higher.

Legend:
Assay in all cases: inhibition of tumour cell growth, NCI panel, 48 h
LOX IMVI = system: LOX IMVI
CAKI-1 = system: CAKI-1
UACC-257 = system: UACC-257
Malme-3M = system: Malme-3M
SF-268 = system: SF-268
ACHN = system: ACHN
OVCAR-8 = system: OVCAR-8
NCI-H522 = system: NCI-H522
SNB-19 = system: SNB-19
HCT-116 = system: HCT-116
PC-3 = system: PC-3
UACC-62 = system: UACC-62
K562 = system: K562
HOP-92 = system: HOP-92
OVCAR-3 = system: OVCAR-3
HOP-62 = system: HOP-62
MOLT-4 = system: MOLT-4
RPMI-8226 = system: RPMI-8226
KM12 = system: KM12
HL-60 = system: HL-60

Measured: GI50

c1ccc2sc(SCSc3nc4ccccc4s3)nc2c1
inactive: LOX IMVI 47.2 µM | CAKI-1 > 100 µM | UACC-257 28.5 µM | Malme-3M > 100 µM | SF-268 > 100 µM | ACHN 74.8 µM | OVCAR-8 > 100 µM | NCI-H522 57.8 µM | SNB-19 > 100 µM | HCT-116 34.1 µM | PC-3 42.1 µM | UACC-62 71 µM | K562 31.1 µM | HOP-92 > 100 µM | OVCAR-3 92.7 µM | HOP-62 > 100 µM | MOLT-4 8.81 µM | RPMI-8226 51.5 µM | KM12 > 100 µM

COc1ccc2nc(NCN3C(=O)c4ccccc4C3=O)sc2c1
inactive: LOX IMVI > 100 µM | UACC-257 > 100 µM | Malme-3M > 100 µM | SF-268 > 100 µM | HL-60 > 100 µM | ACHN > 100 µM | OVCAR-8 > 100 µM | NCI-H522 > 100 µM | SNB-19 > 100 µM | HCT-116 > 100 µM | PC-3 > 100 µM | UACC-62 > 100 µM | K562 > 100 µM | HOP-92 > 100 µM | OVCAR-3 > 100 µM | HOP-62 > 100 µM | MOLT-4 > 100 µM | RPMI-8226 > 100 µM | KM12 > 100 µM

Oc1c2c(nc3cc4c(cc13)OCO4)-c1ccccc1CCC2
inactive: LOX IMVI 43.3 µM | CAKI-1 > 50 µM | UACC-257 > 50 µM | Malme-3M > 50 µM | SF-268 > 50 µM | ACHN > 50 µM | OVCAR-8 48.5 µM | NCI-H522 > 50 µM | SNB-19 > 50 µM | HCT-116 28.1 µM | PC-3 > 50 µM | UACC-62 > 50 µM | K562 > 50 µM | HOP-92 > 50 µM | OVCAR-3 > 50 µM | HOP-62 > 50 µM | MOLT-4 > 50 µM | RPMI-8226 > 50 µM | KM12 > 50 µM

O=C1NC(=O)c2ccc([N+](=O)[O-])c3cccc1c23
inactive: CAKI-1 23.5 µM | UACC-257 16.9 µM | SF-268 24.4 µM | ACHN 19 µM | OVCAR-8 12.6 µM | NCI-H522 2.01 µM | SNB-19 19.5 µM | HCT-116 11.7 µM | PC-3 17.4 µM | UACC-62 13.9 µM | K562 10.9 µM | HOP-92 20 µM | HOP-62 20 µM | RPMI-8226 14.5 µM

CC(=O)OCC1OC(N2C(=O)NC(=O)C3C=C4CCCCC4=CC32)CC1OC(C)=O (stereo unspecified)
inactive: LOX IMVI > 100 µM | UACC-257 > 100 µM | Malme-3M > 100 µM | SF-268 > 100 µM | HL-60 72.8 µM | ACHN > 100 µM | OVCAR-8 > 100 µM | NCI-H522 70 µM | SNB-19 > 100 µM | HCT-116 > 100 µM | PC-3 > 100 µM | UACC-62 > 100 µM | K562 > 100 µM | HOP-92 > 100 µM | OVCAR-3 > 100 µM | HOP-62 > 100 µM | MOLT-4 > 100 µM | RPMI-8226 > 100 µM | KM12 > 100 µM

c1ccc2c(c1)nc1ccccn12
inactive: UACC-257 > 100 µM | Malme-3M > 100 µM | SF-268 > 100 µM | HL-60 > 100 µM | ACHN > 100 µM | OVCAR-8 > 100 µM | SNB-19 > 100 µM | HCT-116 > 100 µM | PC-3 > 100 µM | UACC-62 > 100 µM | K562 > 100 µM | HOP-92 > 100 µM | OVCAR-3 > 100 µM | HOP-62 > 100 µM | MOLT-4 > 100 µM | RPMI-8226 > 100 µM | KM12 > 100 µM

Nn1c(SCC(=O)NCc2ccccc2)nc2ccccc2c1=O
inactive: LOX IMVI 49 µM | CAKI-1 84.1 µM | UACC-257 58.2 µM | Malme-3M 51.2 µM | SF-268 38.2 µM | ACHN 40.6 µM | OVCAR-8 40.6 µM | NCI-H522 41.7 µM | SNB-19 67 µM | HCT-116 29.4 µM | PC-3 54.7 µM | UACC-62 41.6 µM | K562 27.8 µM | HOP-92 34.2 µM | OVCAR-3 32.3 µM | MOLT-4 19.1 µM | RPMI-8226 40.8 µM | KM12 > 100 µM

O=C(Nn1c(-c2ccccc2)nc2ccccc2c1=O)c1ccccn1
inactive: LOX IMVI > 100 µM | UACC-257 > 100 µM | Malme-3M > 100 µM | SF-268 > 100 µM | HL-60 71.4 µM | ACHN > 100 µM | OVCAR-8 64.4 µM | NCI-H522 72.8 µM | SNB-19 > 100 µM | HCT-116 57.4 µM | PC-3 > 100 µM | UACC-62 42.3 µM | K562 78.5 µM | HOP-92 78 µM | OVCAR-3 79.3 µM | HOP-62 > 100 µM | MOLT-4 > 100 µM | RPMI-8226 > 100 µM | KM12 83.6 µM

CCn1c(=O)c2nc(SC)sc2n(-c2ccccc2)c1=O
inactive: LOX IMVI > 100 µM | UACC-257 > 100 µM | Malme-3M > 100 µM | SF-268 > 100 µM | HL-60 > 100 µM | ACHN > 100 µM | OVCAR-8 > 100 µM | NCI-H522 > 100 µM | SNB-19 > 100 µM | HCT-116 > 100 µM | PC-3 > 100 µM | K562 > 100 µM | HOP-92 54.1 µM | OVCAR-3 > 100 µM | HOP-62 > 100 µM | MOLT-4 > 100 µM | RPMI-8226 > 100 µM | KM12 > 100 µM

CN(NC(=O)c1ccco1)C1=NCCCCN1
inactive: LOX IMVI > 100 µM | UACC-257 > 100 µM | Malme-3M > 100 µM | SF-268 > 100 µM | HL-60 > 100 µM | ACHN > 100 µM | OVCAR-8 > 100 µM | NCI-H522 > 100 µM | SNB-19 > 100 µM | HCT-116 > 100 µM | PC-3 > 100 µM | UACC-62 > 100 µM | K562 > 100 µM | HOP-92 > 100 µM | OVCAR-3 > 100 µM | HOP-62 > 100 µM | MOLT-4 > 100 µM | RPMI-8226 > 100 µM | KM12 > 100 µM

CC1(C)[C@@H](Cn2cnc3c(Cl)nc(N)nc32)CC[C@@]1(C)CO
inactive: LOX IMVI 27.9 µM | CAKI-1 28.2 µM | UACC-257 30.4 µM | SF-268 20.8 µM | ACHN > 100 µM | SNB-19 83.4 µM | HCT-116 34.3 µM | PC-3 96.6 µM | UACC-62 20 µM | K562 > 100 µM | HOP-92 > 100 µM | OVCAR-3 33 µM | HOP-62 > 100 µM | RPMI-8226 24.2 µM | KM12 > 100 µM
